This is an account of results in patent US7833998B2, “Oral neurotherapeutic cephalosporin sulfoxide and sulfone-containing compositions” (Revaax Pharmaceuticals, LLC, priority 2003, dated 2010).

Series [1] has as its system golden hamsters. To be noted: King et al. 2001; effective anxiolytics at doses of 1 μg/kg and above; cited from earlier work.
In series [2] the test system is Wistar rats. To be noted: rat, literature validation of the method; cited from earlier work.
The test system of series [3] is BALBc mice. Kind of series: radial arm maze, learning and memory. The series is classed as in vivo, mouse. To be noted: intra-peritoneal 2.5 ng, 250 ng, 25 μg/kg. The text has this: The radial arm maze is one of the most commonly used methods for testing spatial learning and memory in rodents. Developed by Olton and co-workers (Olton, D. S., Samuelson, R. J. (1976) J. Experimental Psychology, 2: 97-115), the maze provides the simultaneous choice of several alternative paths for the test subject. Animals must learn which locations provide food (place learning) using visuospatial cues. Animal care. Male BALBc mice weighing 21-23 gm were housed individually in a normal 12:12 light-dark cycle (light on at 0600 hr) and provide food and water ad libitum. The method described below was reported by Crusio et al., (1987) Brain Research, 425: 182-185. The radial arm maze consisted of a central platform and eight arms made of transparent Plexiglas. The central part measured 22 cm in diameter. The closed arms were 25 cm long, 6 cm high and 6 cm wide. Several fresh food pellets were deposited beyond the end of each arm behind a perforated wall. This arrangement served to prevent the animals from selecting a baited arm by smelling the presence or absence of a reward. […] Entry to an arm was counted when the mouse reached the perforated wall. […] The number of errors was recorded for each day of training. […] Dose response effects were assessed by means of a repeated measured two-way ANOVA followed by Bonferroni's post hoc test.

For series [4], the system named is extracellular neurotransmitter levels in the area of the nucleus accumbens. Kind of series: microdialysis of nucleus accumbens, electrochemical detection of metabolites. The series is classed as in vivo, Sprague Dawley rats. The conditions noted are these: rats, intra-peritoneal 10 ng to 100 μg/kg, dialysate 15-75 minutes post-treatment. On the procedure:
To test this hypothesis, extracellular neurotransmitter levels in the area of the nucleus accumbens were assessed with microdialysis following Δ^3-cefazolin sulfoxide treatment. The accumbens is part of the limbic forebrain best know for its association with the pathophysiology of schizophrenia, conditioned reinforcement and drug addiction but also thought to be involved in sensitization to early life trauma leading to the anxiety disorder PTSD or post traumatic stress disorder (Charney and Bremner (1999) The neurobiology of anxiety disorder. In: NEUROBIOLOGY OF MENTAL ILLNESS (Cahrney, D S, et al eds.), Oxford University Press, New York, pgs 494-517).
Method. Twenty-four male Sprague Dawley rats were anesthetized with sodium pentobarbital (50 mg/kg) and implanted with a unilateral microdialysis guide cannula aimed at the nucleus accumbens. Animals were divided into six groups of four animals each and treated with a range of cefazolin doses (saline vehicle, 10 ng, 100 ng, 1 μg, 10 μg, 100 μg/kg) (FIGS. 6a-c). Two days after recovery from surgery a microdialysis probe (2 mm) was lowered to the area and connected to an infusion pump through Tygon tubing. The dialysate was artificial CSF at pH 7.4 delivered at a flow rate of 1.8 μl/min. The first 30 minutes of dialysate was discarded. Thereafter, samples were collected at 15 minute intervals 45 minutes prior to and 75 minutes following intra-peritoneal administration of Δ^3-cefazolin sulfoxide. Samples were collected into microfuge tubes containing 5 μl of 0.16 N perchloric acid to stabilize catecholamines. At the end of the study, animals were sacrificed and the brains prepared for histology to verify the site of the microdialysis probe.
The levels of dopamine metabolites DOPAC (FIG. 6a) and HVA (FIG. 6b) and serotonin metabolite HIAA (FIG. 6c) were assessed by electrochemical detection. […] Measures from each of the four remaining samples collected between 15-75 minutes post-treatment were analyzed. […] Mean values were analyzed with a one-way ANOVA followed by Bonferroni's post hoc test.

The subject of series [5] is Wistar rats. Kind of series: elevated plus-maze. The series is classed as in vivo, rat. An excerpt:
The elevated plus-maze was developed for the assessment of anxiolytic and anxiogenic drug effects in the rat (Pellow et al., (1985) Journal of Neuroscience Methods 14: 149-167). The method has been validated behaviorally, physiologically, and pharmacologically. The plus-maze has two open arms and two enclosed arms. […] Conversely, anxiogenic compounds such as yohimbin or amphetamines reduce open arm entries and time spent in the open arms.
Method. Male Wistar rats weighing 250-300 g were group housed in a normal 12:12 light-dark cycle light on at 0800 hour and provided food and water ad libitum. The plus-maze consisted of two open arms, 50×10 cm, and two enclosed arms 50×10×40 cm with an open roof, arranged such that the two open arms were opposite to each other. The maze was elevated to a height of 50 cm. Four groups of five animals each were tested in the plus-maze 90 minutes following oral gavage of either vehicle, or 100 ng/kg, 10 μg/kg, or 1 mg/kg of delta-2-cefazolin-1-sulfoxide (Δ^2-cefazolin sulfoxide). At the start of the experiment the animal was place in the center of the plus maze facing the closed arm. Over a 3 minute observation period, animals were scored for the latency to enter the closed arm, time spent in the closed arm, and the number of open arm entries following the first occupation of the closed arm.

In series [6] the test system is Syrian golden hamsters (Mesocricetus auratus). Kind of series: resident/intruder model of offensive aggression (serenic activity). It counts as in vivo. An excerpt:
Agonistic behavior can be classified as either offensive or defensive aggression (Blanchard, R. J., Blanchard, D. C. (1977) Physiology and Behavior, 1, 197-224; Adams, D. B. (1979) The Behavioral Brain Sciences, 2, 201-241; Albert, D. J. and Walsh, M. L. (1984) Neuroscience and Behavioral Reviews, 8, 5-24). Offensive aggression is characterized by the aggressor initiating an attack on an opponent, while defensive aggression lacks active approach. Both types of aggression have their own unique neurobehavioral systems. The stimuli that elicit offensive and defense attacks are different, as are the sequences of behaviors that accompany each agonistic response. […] Offensive aggression is easily studied using male golden hamsters tested in a resident/intruder paradigm, an established model of offensive aggression ([…]. (1988) Physiology and Behavior, 44, 235-239). Placing an unfamiliar male hamster into the home cage of another male hamster elicits a well-defined sequence of agonistic behaviors from the resident that includes offensive aggression. Animal Care. Male Syrian golden hamsters (Mesocricetus auratus) (140-150 g) obtained from Harlan Sprague-Dawley Laboratories (Indianapolis, Ind.) were housed individually in Plexiglas cages (24 cm×24 cm×20 cm), maintained on a reverse light:dark cycle ([…]:10D; lights on at 19:00 hr) and provided food and water ad libitum. Animals were acclimated to the reverse light:dark cycle for at least two weeks before testing. All behavioral tests were conducted during the dark phase of the circadian cycle. Behavioral Measures and Analysis. Hamsters are nocturnal and as such behavioral tests were performed during the first four hours of the dark phase under dim red illumination. The resident was scored for offensive aggression, e.g., latency to bite the intruder, total contact time with the intruder, the total number of bites, and flank marking, over a 10 minute test period ([…]. (1988) Physiology and Behavior, 44, 235-239). Flank marking is a form of olfactory communication in which a hamster arches its back and rubs pheromone producing flank glands against objects in the environment (Johnston, R. E. (1985) Communication, In: THE HAMSTER REPRODUCTION AND BEHAVIOR. Ed Siegel, H. I. Plenum Press, New York, pp 121-154). […] Parametric data, i.e., latencies and contact time, were analyzed with a one-way ANOVA followed by Newman-Keuls post hoc tests. Non-parametric data, i.e., number of bites and flank marks, were analyzed with Kruskal-Wallis tests followed by Mann-Whitney U tests to determine differences between groups. Method. […] Ninety min after oral gavage an intruder was placed into the home cage and the resident scored for offensive aggression. Following aggression testing, animals were screened for motor activity in an open field paradigm and sexual motivation (FIGS. 4a-b).

For series [7] the test system is unchanged. The conditions noted are these: in vivo, po. An excerpt: Method. […] Ninety min after oral gavage an intruder was placed into the home cage and the resident scored for offensive aggression. Following aggression testing, animals were screened for motor activity in an open field paradigm and sexual motivation (FIGS. 4a-b).

Turning to `O=C1CC2(CCCC2)CC(=O)N1CCCCN1CCN(c2ncccn2)CC1` [buspirone], in series [1], the “effect on seed finding” value is “dramatically reduce”.

As for `CNCCCN1c2ccccc2CCc2ccccc21` [desipramine], the “effect on seed finding” value in series [1] is “ineffective”.

Regarding `CN1C(=O)CN=C(c2ccccc2)c2cc(Cl)ccc21` [diazepam], in series [2], the “number of entries into the open arms” value is “significantly increase” and the “percentage of time spent in the open arms” value is reported as “significantly increase”.

Turning to `CNCCC(Oc1ccc(C(F)(F)F)cc1)c1ccccc1` (centres unmarked) [fluoxetine], in series [1], the “effect on seed finding” value is given as “dramatically reduce”.

`COC(=O)[C@@H]1[C@H]2C[C@H]3c4[nH]c5ccccc5c4CCN3C[C@@H]2CC[C@@H]1O` [yohimbine]: the “effect on seed finding” value in series [1] was “ineffective”. In series [2], the “number of entries into the open arms” value is listed as “reduce” and the “percentage of time spent in the open arms” value is recorded as “reduce”.

As for `Cc1nnc(SCC2=C(C(=O)O)N3C(=O)[C@@H](NC(=O)Cn4cnnn4)[C@H]3[S+]([O-])C2)s1` (some centres unmarked) [Δ^3-cefazolin sulfoxide, cefazolin-1-sulfoxide], the number of errors result in series [3] (day five, vs vehicle) is given as “no significant difference”; in series [3] (testing days three and four, vs vehicle control (*p<0.05, **p<0.01) (FIG. 5)) it was “significantly reduced”. Moreover, the “DOPAC levels (dopamine metabolite)” value in series [4] (pg/15 μl (FIG. 6a)) is reported as “significant (*p<0.05; **p<0.01) dose-dependent increase”. The “HVA levels (dopamine metabolite)” value in series [4] (pg/15 μl (FIG. 6b)) is “significant (*p<0.05; **p<0.01) dose-dependent increase”. In addition, the “HIAA levels (serotonin metabolite)” value in series [4] (pg/15 μl (FIG. 6c)) was “significant (*p<0.05; **p<0.01) dose-dependent increase”.

Take delta-2-cefazolin-1-sulfoxide: the “anxiolytic activity in the elevated plus-maze” value in series [5] (given orally to rats) was “dose-dependent anxiolytic activity”. Besides, the “latency to enter the closed arm” value in series [5] (rats, oral gavage 100 ng/kg, 10 μg/kg, 1 mg/kg, 90 min, 3 minute observation, vs vehicle (FIG. 2a)) is reported as “increased”. In series [5] (rats, oral gavage 100 ng/kg, 10 μg/kg, 1 mg/kg, 90 min, vs vehicle (FIG. 2b)), the “time spent in the open arm” value is reported as “significantly increased (p<0.01)”. Also, the “serenic activity, inhibiting offensive aggression” value in series [6] (oral gavage) was “very effective serenic”. For the same compound, the flank marking result in series [6] (oral gavage 100 ng/kg, 10 μg/kg, 1 mg/kg, 90 min, 10 minute test (FIG. 3d)) was “significantly increased”. Further, the latency to bite result in series [6] (oral gavage 100 ng/kg, 10 μg/kg, 1 mg/kg, 90 min, 10 minute test, p<0.01 (FIG. 3a)) is reported as “significantly increased”. For the same compound, in series [6] (oral gavage 100 ng/kg, 10 μg/kg, 1 mg/kg, 90 min, 10 minute test, p<0.01 (FIG. 3c)), the number of bites entry was “decreased”. The contact time entry in series [6] (oral gavage, 90 min, 10 minute test, highest dose (1 mg/kg) (FIG. 3b)) is “significantly reduced at the highest dose”. Also, in series [7], the “motor activity (open field)” value is listed as “no change” and the sexual motivation result is listed as “no change”.
